In patent US20230241071A1, “COMBINATION TREATMENT OF LIVER DISORDERS” (Terns Pharmaceuticals, Inc., priority 2021, published 2023):

What was measured:
[1] = Mouse NASH model (high fat diet + CCl4), Compound 2; type: in vivo; settings: C57BL/6J, in vivo, oral; mouse model of NASH; read-out: threshold AUC achieving significant histological improvement
Experimental: (§1) C57BL/6J mice were fed a high fat diet for 10 weeks to induce obesity (>38 g BW). Obese mice were injected intraperitoneally (i.p.) twice a week for four weeks with 0.5 μl/g 25% CCl4 (formulated in olive oil) to induce fibrosis, and one group of normal BW mice were injected i.p. twice a week for four weeks with olive oil to serve as a healthy control. During the same dosing period, obese mice were fed orally once a day for 28 days with vehicle or varying doses of Compound 2. On CCl4 dosing days, CCl4 was administered at 4 hours post compound or vehicle dosing. On day 27, all animals were fasted for about 16 hours before terminal euthanasia. On day 28, all animals were sacrificed and various biological parameters were analyzed. Total body, liver, heart and brain weight were measured and changes in liver and heart weight were normalized using brain weight.
(§2) Liver samples were collected for whole transcriptome analysis by RNA sequencing (RNAseq). RNAseq library (n=5 per group) preparation and sequencing was performed using Illumina standard protocols. Alignment of sequencing reads was performed using STAR aligner software and read counts were estimated using RSEM. Differentially expressed genes (compared to vehicle-treated NASH control mice) were determined using EdgeR software. Gene ontology analysis was performed using Advaita software with fold-change and adjusted p-value cutoffs of >1.5 and <0.05, respectively. Gene ontologies were derived from the Gene Ontology Consortium database (2019 Apr. 26) (Ashburner et al., Gene ontology: Tool for the unification of biology. Nature Genetics 25(1): 25-9 (2000); Gene Ontology Consortium, Creating the Gene Ontology Resource: Design and Implementation. Genome Research 11: 1425-1433 (2001)).

[2] = tested on: mouse NASH model; assay: as above; type: in vivo
Experimental: as §1, §2

[3] = molecular target: T1, THR-β (Homo sapiens, UniProt P10828); assay: Binding activity to the thyroxine receptor beta
T1 sequence (P10828 1-461): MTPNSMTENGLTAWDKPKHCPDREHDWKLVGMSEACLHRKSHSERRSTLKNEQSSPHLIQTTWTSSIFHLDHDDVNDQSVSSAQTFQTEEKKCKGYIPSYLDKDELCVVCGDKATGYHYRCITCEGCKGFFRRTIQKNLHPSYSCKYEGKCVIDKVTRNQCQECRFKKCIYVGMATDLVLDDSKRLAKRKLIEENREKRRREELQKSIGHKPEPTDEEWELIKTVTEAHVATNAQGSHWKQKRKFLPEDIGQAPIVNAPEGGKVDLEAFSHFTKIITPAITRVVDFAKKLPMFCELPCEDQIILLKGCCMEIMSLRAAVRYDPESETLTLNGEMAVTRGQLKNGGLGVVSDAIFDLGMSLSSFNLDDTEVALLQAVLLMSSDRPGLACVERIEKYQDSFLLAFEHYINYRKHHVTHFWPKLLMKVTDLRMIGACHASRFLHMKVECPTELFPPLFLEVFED

[4] = Capsule pharmacokinetics in beagle dogs; type: in vivo, dog
Experimental: To determine the effect of the solubilizer on the uptake of compound 2, 50 mg (based on free acid) Compound 2 was formulated in a capsule with or without 5 wt % SLS (see Table 10) and was administered to fasted beagle dogs pre-treated with pentagastrin (6 μg/kg, administered by intramuscular injection 30±2 minutes prior to administration of compound 2). The plasma concentration of compound 2 was measured over 24 hours (see FIG. 9).
To determine the pH effect on PK performance, beagle dogs were divided into two groups (n=3 per group). For group 1, dogs were pre-treated with pentagastrin (6 μg/kg, intramuscular injection 30±2 minutes prior to administration of compound 2). For group 2, dogs were pre-treated with famotidine (2 tablets, 20 mg/tablet, oral administration 180±10 minutes prior to administration of compound 2). Compound 2 (10 mg capsule, 5% SLS) was administered, and plasma concentrations of compound 2 were monitored for 24 h and are depicted in FIG. 10. […] To determine the food effect on PK performance, beagle dogs were divided into two groups (n=3 per group). For the fasted group, dogs were fasted overnight through 4-hours post dosing. For the fed group, dogs were fed high fat food 30 minutes prior to administration. Plasma concentrations of compound 2 were monitored for 24 h. Compound 2 (10 mg capsule, 5% SLS) was administered, and plasma concentrations of compound 2 were monitored for 24 h and are depicted in FIG. 11.

[5] = tested on: SD rats fed a high cholesterol diet; assay: Rat hypercholesterolemic model; type: in vivo; settings: single IP dose 0.3 to 30 mpk, 24 h after injection
Experimental: SD rats were fed a high cholesterol diet for 2 weeks, increasing the serum cholesterol levels ˜4-fold over that time. Single doses of Compound 2 from 0.3 to 30 mpk or a single 30 mpk dose of MGL-3196 were injected IP and serum was analyzed for total serum cholesterol and triglycerides 24 h after the injection.

[6] = Multiple ascending doses of Compound 2 in healthy subjects with elevated LDL-c; type: in vivo, human; settings: 1, 3, 6, 10 mg QD 14 days
Experimental: Healthy volunteers with mildly elevated LDL-c were randomized 3:1 to Compound 2 (n=6) or placebo (n=2). Volunteers randomized to Compound 2 received multiple doses of 1, 3, 6 or 10 mg of Compound 2 once daily for 14 days in the MAD cohort of the study.

[7] = oral QD 28 days, all doses tested

## N#Cc1nn(-c2cc(Cl)c(Oc3n[nH]c(=O)c4ccccc34)c(Cl)c2)c(=O)[nH]c1=O [Compound 2, 2-(3,5-dichloro-4-((4-oxo-3,4-dihydrophthalazin-1-yl)oxy)phenyl)-3,5-dioxo-2,3,4,5-tetrahydro-1,2,4-triazine-6-carbonitrile]
[1]
  AUC: 3320 ng·h/mL
[2]; liver RNAseq vs NASH control mice
  expression of genes associated with collagen extracellular matrix and hepatic stellate cell activation: reducing their expression levels
[2]; oral QD 28 days
  liver inflammation (histology): trend in inflammation reduction
  liver/brain weight: significantly reduced
  total body weight or heart/brain weight: no effect
[2]; oral QD 28 days, 3 and 10 mpk
  liver fibrosis (histology): significantly reduced
[2]; [7]
  liver steatosis (histology): significantly reduced
  serum total cholesterol, triglycerides and ALT: significantly reduced
[3]; ratio of binding IC50
  THR-α/-β selectivity: >58.8 factor
[3]; read-out: IC50 THR-β binding force
  IC50: 170 nM
[4]; 10 mg capsule, 5% SLS, fasted vs high fat food
  food effect on PK performance: delayed Compound 2 Tmax but did not have an impact on the plasma exposure
[4]; 10 mg capsule, 5% SLS, pentagastrin vs famotidine pre-treatment
  pH effect on PK performance: Minimal pH effect
[4]; 50 mg capsule with vs without 5 wt % SLS, fasted beagle dogs
  increase of exposure (Cmax, AUC) by formulation with 5 wt % SLS: more than 70%
[5]
  reduction of serum triglycerides from time 0: 30-80%
  reduction of total cholesterol in the serum: 30-70%
[6]
  PK dose proportionality and variability: dose-proportional PK with low variability
  SHBG: increased SHBG
  circulating atherogenic lipid levels (LDL-c, Apo B, total cholesterol, triglycerides): significant decreases
  free T4: Dose-dependent declines
  safety and tolerability: generally safe and well-tolerated
  subjects with ALT increase to ≥2×ULN: No subject
